pIC50: −log10 of the molar value. Read-outs that look alike come from different tables or passages of the source.

Assay type in all cases: cell-based
Data set [1] relates to MRC-5 cell line. Description: Cell viability assay (cytotoxicity) for MRC-5 cell line. Conditions: for pIC50: Homo sapiens, MRC5, 120 h. As to the method: 4. Cell Viability Assay for MRC-5 Cell Line
(1) Culture of MRC-5 Cell Line
Passage of cultured cells was maintained within P15.
(2) Treatment of Compounds of the Present Invention
Then, it was cultured in 37° C.
(3) Cytotoxicity Experiment
CO2 incubator for 4 hours.
Cell Viability Assay for MRC-5 cell line

Data set [2] concerns NCI-H526 cell line. Description: Cell viability assay for H526 cell line. Conditions: Homo sapiens, NCI-H526, 120 h; H526 cells, 5 days, EZ-Cytox, 3000 nM to 0.46 nM. As to the method:
3. Cell Viability Assay for H526 Cell Line
(1) Culture of NCI-H526 Cell Line
(2) Treatment of Compounds of the Present Invention and Method of Cell Viability Assay
After treating the compound to each well to make the total volume of 200 μL, it was cultured in a CO2 incubator (Thermo Fisher Science, Cat. No. 4111) for 5 days.
The absorbance of the completely cultured sample was measured by setting the wavelength of a plate reader (BMG Labtech, CLARIOstar Plus) to […], and was measured after shaking for 3 minutes in a plate reader before measurement.
In Table 3, Activity represents IC50 value of each Exemplary Compound treatment group to H526 cell line (A: <30 nM, B: <50 nM, C: <100 nM, D: <200 nM, E: <400 nM).

Data set [3] addresses T1, PLK1 (Homo sapiens, UniProt P53350).
T1 construct: endogenous in cells; host or cells: HeLa LgBit (Plk1-HiBit KI): HeLa cells stably expressing LgBit, with HiBit knocked into the endogenous Plk1 locus by CRISPR/Cas9
Description: Luciferase assay for PLK1 in HeLa LgBit (Plk1-HiBit KI) cell line. Conditions: 300 nM compound, luminescence after 9 hours, read-out: Activity: ratio of the luminescense value of compound treatment group to DMSO treatment group. As to the method:
2. Luciferase Assay for PLK1
(1) Preparation and Culture of HeLa LgBit (Plk1-HiBit KI) Cell Line
A HeLa cell line in which the LgBit vector was transfected and expressed stably was prepared. Then, after constructing gRNA and donor to express the HiBit amino acid sequence behind the C-terminal of the Plk1 gene, which was inherent in the cell, it was inserted into the cell together with a vector capable of expressing CRISPR/Cas9. Only the cells in which the insertion was completed and knock-in had progressed were selected, sub-cultured and used.
(2) Treatment of Compounds of the Present Invention and Method of Luciferase Assay
In the case of HeLa LgBit (Plk1-HiBit KI), the compounds were treated after being released after thymidine block, and the process was as follows. Thymidine (Sigma-Aldrich Cat. No. T9250-5G) was completely dissolved in DW and used in the experiment. For thymidine block, the products were treated with 2 mM of thymidine and then incubated for 24 hours. For release and chemical treatment, the medium was suctioned and washed with 1×PBS. TrypLE™ was added and incubated in 37° C. CO2 incubator for 5 min. Cells neutralized by adding complete media were counted through a counter. For each well of a 96-well culture plate (SPL), 3.3×10^4 cells and a total medium volume of 150 μL were seeded and incubated in a CO2 incubator.
Each cell line was incubated in a CO2 incubator for 18 hours, and Endurazine was added to each well to make up 4% of the total volume. After adding the compound of the present invention in a 96-well white plate (SPL) to a concentration of 300 nM, the wavelength of the plate reader (BMG Labtech, CLARIOstar Plus) was set to […], and then the luminescence was tracked in real time.
In Table 2, Activity represents the ratio of the luminescense value of each Exemplary Compound treatment group to DMSO treatment group (+++: <0.3, ++<0.6, +<0.7).
Background: With HiBiT, luminescence reflects the tagged protein that the partner subunit can reach.

Setting [4] is: read-out: Activity: IC50 value to MRC-5 cell line (Comparative Compounds).
Where [5] appears, read: MRC-5 normal cell line, 5 days, EZ-Cytox, 10000 nM to 1.52 nM, read-out: Activity: IC50 value to MRC-5 cell line (Exemplary Compounds).

T1 sequence (P53350 whole entry): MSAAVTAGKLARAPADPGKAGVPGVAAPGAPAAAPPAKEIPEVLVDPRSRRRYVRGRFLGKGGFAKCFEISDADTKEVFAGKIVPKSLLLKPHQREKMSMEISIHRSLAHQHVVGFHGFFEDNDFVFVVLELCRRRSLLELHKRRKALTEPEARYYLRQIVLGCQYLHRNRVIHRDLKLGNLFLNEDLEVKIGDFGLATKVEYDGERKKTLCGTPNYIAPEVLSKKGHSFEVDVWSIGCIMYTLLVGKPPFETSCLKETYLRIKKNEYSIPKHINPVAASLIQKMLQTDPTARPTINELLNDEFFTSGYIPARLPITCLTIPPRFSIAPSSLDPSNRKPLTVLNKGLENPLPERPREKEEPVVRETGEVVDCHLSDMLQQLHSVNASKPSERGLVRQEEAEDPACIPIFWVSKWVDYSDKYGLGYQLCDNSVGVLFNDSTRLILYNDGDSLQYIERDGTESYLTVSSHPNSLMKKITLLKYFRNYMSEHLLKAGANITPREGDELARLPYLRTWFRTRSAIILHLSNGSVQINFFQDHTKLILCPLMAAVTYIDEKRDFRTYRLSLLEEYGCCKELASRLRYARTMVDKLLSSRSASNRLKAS

Usually pIC50 stands for the IC50 on a negative log10 scale, so that one unit is a factor of ten. With `CC[C@@H]1C(=O)N(C)c2cnc(Nc3ccc(C(=O)NCCOCCOCCNc4cccc5c4C(=O)N(C4CCC(=O)NC4=O)C5=O)cc3OC)nc2N1C1CCCC1` (stereo partly shown) [Comparative Compound 1, reference compound], in data set [1] (MRC-5 normal cell line, 5 days, EZ-Cytox, 10000 nM to 1.52 nM, read-out: Activity: IC50 value to MRC-5 cell line (Comparative Compounds)), the pIC50 was 6.97. Further, the “cytotoxicity in normal cell line” value in data set [1] (MRC-5 normal cell line, statement in words) is on record as “high level of cytotoxicity”.
As for `CC[C@@H]1C(=O)N(C)c2cnc(Nc3ccc(C(=O)NC4CCN(C)CC4)cc3OC)nc2N1C1CCCC1` [Comparative Compound 2, BI2536, reference compound], the pIC50 in data set [1] (setting [4]) was 5.51.
On the same count and under the same terms, then `CC[C@@H]1C(=O)N(C)c2cnc(Nc3ccc(C(=O)N[C@H]4CC[C@H](N5CCN(CC6CC6)CC5)CC4)cc3OC)nc2N1C(C)C` [Comparative Compound 3, Volasertib, reference compound], with 5.53; and `COc1cc(C(=O)NC2CCN(C)CC2)c(F)cc1Nc1ncc2c(n1)N(C1CCCC1)CC(F)(F)C(=O)N2C` [Comparative Compound 4, TAK960, reference compound], with 5.04.
In the case of `COc1cc(C(=O)NC2CCN(CCOCCOCCOCCOCCNc3ccc(C4CCC(=O)NC4=O)cc3)CC2)c(F)cc1Nc1ncc2c(n1)N(C1CCCC1)CC(F)(F)C(=O)N2C` (stereo not shown) [Compound 1, 4-((9-cyclopentyl-7,7-difluoro-5-methyl-6-oxo-6,7,8,9-tetrahydro-5H-pyrimido[4,5-b][1,4]diazepin-2-yl)amino)-N-(1-(14-((4-(2,6-dioxopiperidin-3-yl)phenyl)amino)-3,6,9,12-tetraoxatetradecyl)piperidin-4-yl)-2-fluoro-5-methoxybenzamide], the pIC50 in data set [2] was greater than 7.30; in data set [1] (setting [5]), 4.59. Further, the remaining activity at 0.3 µM in data set [3] is less than 60%.
Taken in the same sequence, the figures for `COc1cc(C(=O)NC2CCN(C(=O)CCCOc3cccc(C4CCC(=O)NC4=O)c3)CC2)c(F)cc1Nc1ncc2c(n1)N(C1CCCC1)CC(F)(F)C(=O)N2C` (stereo not shown) [Compound 2, 4-((9-cyclopentyl-7,7-difluoro-5-methyl-6-oxo-6,7,8,9-tetrahydro-5H-pyrimido[4,5-b][1,4]diazepin-2-yl)amino)-N-(1-(4-(3-(2,6-dioxopiperidin-3-yl)phenoxy)butanoyl)piperidin-4-yl)-2-fluoro-5-methoxybenzamide] were greater than 7.30, less than 5.00 and less than 60%.
For `COc1cc(OCC2CC3(CCN(CC4CCN(c5ccc(C6CCC(=O)NC6=O)cc5F)CC4)CC3)C2)ccc1Nc1ncc2c(n1)N(C1CCCC1)CC(F)(F)C(=O)N2C` (stereo not shown) [Compound 17, 3-(4-(4-((2-((4-((9-cyclopentyl-7,7-difluoro-5-methyl-6-oxo-6,7,8,9-tetrahydro-5H-pyrimido[4,5-b][1,4]diazepin-2-yl)amino)-3-methoxyphenoxy)methyl)-7-azaspiro[3.5]nonan-7-yl)methyl)piperidin-1-yl)-3-fluorophenyl)piperidine-2,6-dione], in data set [2], the pIC50 is greater than 6.70. Further, the remaining activity at 0.3 µM in data set [3] is less than 30%.
Consider `COc1cc(C(=O)NN2CCC(N3CC4(CCN(c5ccc(C6CCC(=O)NC6=O)cc5F)CC4)C3)CC2)ccc1Nc1ncc2c(n1)N(C1CCCC1)CC(F)(F)C(=O)N2C` (stereo not shown) [Compound 18, 4-((9-cyclopentyl-7,7-difluoro-5-methyl-6-oxo-6,7,8,9-tetrahydro-5H-pyrimido[4,5-b][1,4]diazepin-2-yl)amino)-N-(4-(7-(4-(2,6-dioxopiperidin-3-yl)-2-fluorophenyl)-2,7-diazaspiro[3.5]nonan-2-yl)piperidin-1-yl)-3-methoxybenzamide], for which, in data set [2], the pIC50 was greater than 7.52. In addition, the remaining activity at 0.3 µM in data set [3] is less than 60%.
In data set [2], `COc1cc(C(=O)NC2CC23CCN(CC2CCN(c4ccc(C5CCC(=O)NC5=O)cc4F)CC2)CC3)ccc1Nc1ncc2c(n1)N(C1CCCC1)CC(F)(F)C(=O)N2C` (stereo not shown) [Compound 23, 4-((9-cyclopentyl-7,7-difluoro-5-methyl-6-oxo-6,7,8,9-tetrahydro-5H-pyrimido[4,5-b][1,4]diazepin-2-yl)amino)-N-(6-((1-(4-(2,6-dioxopiperidin-3-yl)-2-fluorophenyl)piperidin-4-yl)methyl)-6-azaspiro[2.5]octan-1-yl)-3-methoxybenzamide] gave a pIC50 greater than 7.52. Also, in data set [3], the remaining activity at 0.3 µM was less than 30%.
On to `COc1cc(C(=O)NC2CC3(CCN(CC4CCN(c5cccc(N6CCC(=O)NC6=O)c5)CC4)CC3)C2)ccc1Nc1ncc2c(n1)N(C1CCCC1)CC(F)(F)C(=O)N2C` [Compound 34, 4-((9-cyclopentyl-7,7-difluoro-5-methyl-6-oxo-6,7,8,9-tetrahydro-5H-pyrimido[4,5-b][1,4]diazepin-2-yl)amino)-N-(7-((1-(3-(2,4-dioxotetrahydropyrimidin-1(2H)-yl)phenyl)piperidin-4-yl)methyl)-7-azaspiro[3.5]nonan-2-yl)-3-methoxybenzamide], for which the pIC50 in data set [2] is greater than 7.52. The remaining activity at 0.3 µM in data set [3] was less than 60%.
For `COc1cc(C(=O)NC2CC3(CCN(CC4CCN(c5cccc(C6CCC(=O)NC6=O)c5)CC4)CC3)C2)ccc1Nc1ncc2c(n1)N(C1CCCC1)CC(F)(F)C(=O)N2C` (stereo not shown) [Compound 41, 4-((9-cyclopentyl-7,7-difluoro-5-methyl-6-oxo-6,7,8,9-tetrahydro-5H-pyrimido[4,5-b][1,4]diazepin-2-yl)amino)-N-(7-((1-(3-(2,6-dioxopiperidin-3-yl)phenyl)piperidin-4-yl)methyl)-7-azaspiro[3.5]nonan-2-yl)-3-methoxybenzamide] the same measures were greater than 7.52 and less than 60%.
`COc1cc(C(=O)NC2CCN(C3CN(c4ccc(C5CCC(=O)NC5=O)cc4F)C3)CC2)ccc1Nc1ncc2c(n1)N(C1CCCC1)CC(F)(F)C(=O)N2C` (stereo not shown) [Compound 42, 4-((9-cyclopentyl-7,7-difluoro-5-methyl-6-oxo-6,7,8,9-tetrahydro-5H-pyrimido[4,5-b][1,4]diazepin-2-yl)amino)-N-(1-(1-(4-(2,6-dioxopiperidin-3-yl)-2-fluorophenyl)azetidin-3-yl)piperidin-4-yl)-3-methoxybenzamide]: the pIC50 in data set [2] is greater than 7.52. Moreover, the remaining activity at 0.3 µM in data set [3] was less than 30%.
Taken in the same sequence, the figures for `COc1cc(C(=O)NN2CCC(C3CN(c4ccc(C5CCC(=O)NC5=O)cc4F)C3)CC2)ccc1Nc1ncc2c(n1)N(C1CCCC1)CC(F)(F)C(=O)N2C` (stereo not shown) [Compound 43, 4-((9-cyclopentyl-7,7-difluoro-5-methyl-6-oxo-6,7,8,9-tetrahydro-5H-pyrimido[4,5-b][1,4]diazepin-2-yl)amino)-N-(4-(1-(4-(2,6-dioxopiperidin-3-yl)-2-fluorophenyl)azetidin-3-yl)piperidin-1-yl)-3-methoxybenzamide] were greater than 7.30 and less than 60%.
For `COc1cc(C(=O)NN2CC3(CCN(CC4CCN(c5ccc(C6CCC(=O)NC6=O)cc5F)CC4)CC3)C2)ccc1Nc1ncc2c(n1)N(C1CCCC1)CC(F)(F)C(=O)N2C` (stereo not shown) [Compound 44] the same measures were greater than 7.52 and less than 60%.
Consider `COc1cc(C(=O)NC2CC3(CCN(C[C@@H]4CCN(c5ccc(C6CCC(=O)NC6=O)cc5F)C[C@@H]4F)CC3)C2)ccc1Nc1ncc2c(n1)N(C1CCCC1)CC(F)(F)C(=O)N2C` (stereo partly drawn) [Compound 46, −((9-cyclopentyl-7,7-difluoro-5-methyl-6-oxo-6,7,8,9-tetrahydro-5H-pyrimido[4,5-b][1,4]diazepin-2-yl)amino)-N-(7-(((3R,4S)-1-(4-(2,6-dioxopiperidin-3-yl)-2-fluorophenyl)-3-fluoropiperidin-4-yl)methyl)-7-azaspiro[3.5]nonan-2-yl)-3-methoxybenzamide], for which the remaining activity at 0.3 µM in data set [3] is less than 30%.

Source of the values: patent US11912710B2 (UPPTHERA, INC., priority 2021, dated 2024).
